The values that follow come from ChEMBL document CHEMBL4842383 (J Med Chem, 2021).

Molecules are shown by their SMILES.

Series [1] is described as follows: Half life in Sprague-Dawley rat at 5 mg/kg, iv measured up to 24 hrs by LC-MS/MS analysis. The class given is ADME, organism-based. The conditions noted are these: in vivo.
Series [2] in a line: Half life in Sprague-Dawley rat at 20 to 25 mg/kg, po measured up to 24 hrs by LC-MS/MS analysis. The class given is ADME, organism-based. The note with it: in vivo, dose 20-25 mg/kg.
The nature of series [3]: Dose normalized Cmax in Sprague-Dawley rat at 20 to 25 mg/kg, po measured up to 24 hrs by LC-MS/MS analysis. In kind it is ADME, organism-based. The conditions noted are these: in vivo, dose 20-25 mg/kg.
The subject of a further series is MC-38. As to the kind of experiment: Antitumor activity against mouse MC38 cells inoculated C57BL/6 mouse syngeneic model assessed as tumor growth inhibition at 100 mg/kg, po twice a day for 2 weeks by five days on/two days off schedule relative to control. The conditions noted are these: MC-38, po, 336 h, read-out: TGI. In kind it is functional.
A short description of series [4]: Toxicity in C57BL/6 mouse inoculated with mouse MC38 cells assessed as body weight loss at 100 mg/kg, po twice a day for 2 weeks by five days on/two days off schedule relative to control. In kind it is organism-based, MC-38. The note with it: in vivo, 336 h.
The nature of series [5]: Clearance in Sprague-Dawley rat at 5 mg/kg, iv measured up to 24 hrs by LC-MS/MS analysis. In kind it is ADME, organism-based. The conditions noted are these: in vivo.
Series [6] is described as follows: Oral bioavailability in Sprague-Dawley rat at 20 to 25 mg/kg measured up to 24 hrs by LC-MS/MS analysis. The class given is ADME, organism-based. The conditions noted are these: in vivo, dose 20-25 mg/kg.
Series [7] deals with Mus musculus. Description: Immunomodulatory activity in mouse MC38 cells inoculated C57BL/6 mouse syngeneic model assessed as decrease in M2 like TAM (CD206+ CD11b F4/80+) at 100 mg/kg, po twice a day for 2 weeks by five days on/two days off schedule relative to control. The class given is functional, MC-38.
Series [8] in a line: Tmax in Sprague-Dawley rat at 20 to 25 mg/kg, po measured up to 24 hrs by LC-MS/MS analysis. The class given is ADME, organism-based. The conditions noted are these: in vivo, dose 20-25 mg/kg.
Series [9] in a line: Volume of distribution at steady state in Sprague-Dawley rat at 5 mg/kg, iv measured up to 24 hrs by LC-MS/MS analysis. The class given is ADME, organism-based. The conditions noted are these: in vivo, read-out: Vdss.
Series [10] has as its system Mus musculus. Description: Immunomodulatory activity in mouse MC38 cells inoculated C57BL/6 mouse syngeneic model assessed as […] in M1 like TAM (CD86+ CD11b+ F4/80+)at 100 mg/kg, po twice a day for 2 weeks by five days on/two days off schedule relative to control. The class given is functional, MC-38.
Series [11] has as its target Vascular endothelial growth factor receptor 2 (Homo sapiens, UniProt P35968). Description: Inhibition of wild-type human partial length VEGFR2 (R787 to P1253 residues) expressed in mammalian expression system by Kinomescan method.
Series [12] deals with Platelet-derived growth factor receptor alpha (Homo sapiens, UniProt P16234). Description: Inhibition of wild-type human partial length PDGFRalpha (V575 to D1002 residues) expressed in mammalian expression system by Kinomescan method.
Sequence of Platelet-derived growth factor receptor alpha (P16234 whole entry, the tested form may be a part): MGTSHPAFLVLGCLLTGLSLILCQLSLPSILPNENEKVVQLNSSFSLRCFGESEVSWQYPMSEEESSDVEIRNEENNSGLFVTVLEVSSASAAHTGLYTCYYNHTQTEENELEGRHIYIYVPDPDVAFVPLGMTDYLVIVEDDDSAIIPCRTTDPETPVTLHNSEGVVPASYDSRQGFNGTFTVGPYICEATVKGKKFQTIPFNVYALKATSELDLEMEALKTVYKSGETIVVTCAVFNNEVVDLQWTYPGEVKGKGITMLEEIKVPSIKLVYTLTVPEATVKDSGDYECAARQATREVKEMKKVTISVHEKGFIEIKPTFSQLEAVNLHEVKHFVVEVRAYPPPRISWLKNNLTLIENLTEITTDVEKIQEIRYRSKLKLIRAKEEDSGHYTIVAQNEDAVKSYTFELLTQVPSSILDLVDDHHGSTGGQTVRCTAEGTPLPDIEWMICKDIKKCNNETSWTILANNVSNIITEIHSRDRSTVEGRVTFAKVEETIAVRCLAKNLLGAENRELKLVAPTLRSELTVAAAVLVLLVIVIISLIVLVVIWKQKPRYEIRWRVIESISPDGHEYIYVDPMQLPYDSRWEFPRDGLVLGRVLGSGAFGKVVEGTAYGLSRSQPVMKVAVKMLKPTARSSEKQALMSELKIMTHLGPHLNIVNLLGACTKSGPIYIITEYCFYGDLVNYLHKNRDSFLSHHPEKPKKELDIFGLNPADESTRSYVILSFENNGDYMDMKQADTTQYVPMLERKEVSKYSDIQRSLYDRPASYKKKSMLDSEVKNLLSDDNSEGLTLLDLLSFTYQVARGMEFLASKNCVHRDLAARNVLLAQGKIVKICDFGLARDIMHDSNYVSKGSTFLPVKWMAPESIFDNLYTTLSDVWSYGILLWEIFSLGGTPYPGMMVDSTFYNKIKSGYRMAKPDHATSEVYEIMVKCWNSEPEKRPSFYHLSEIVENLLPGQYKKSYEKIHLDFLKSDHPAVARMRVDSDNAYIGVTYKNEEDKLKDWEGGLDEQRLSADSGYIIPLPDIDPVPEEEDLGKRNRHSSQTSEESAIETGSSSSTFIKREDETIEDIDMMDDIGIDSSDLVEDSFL
Series [13] has as its target T1, Aurora kinase B (Homo sapiens, UniProt Q96GD4). Description: Inhibition of human recombinant full length GST-AURKB using tetra(-LRRASLG) peptide as substrate incubated for 20 mins by ATP Kinase Glo assay. On the set-up: species or system Sf9. (In general: In Kinase-Glo more light means more ATP remaining.)
The target in the next series is T2, Aurora kinase A (Homo sapiens, UniProt O14965).
T2 sequence (O14965 whole entry): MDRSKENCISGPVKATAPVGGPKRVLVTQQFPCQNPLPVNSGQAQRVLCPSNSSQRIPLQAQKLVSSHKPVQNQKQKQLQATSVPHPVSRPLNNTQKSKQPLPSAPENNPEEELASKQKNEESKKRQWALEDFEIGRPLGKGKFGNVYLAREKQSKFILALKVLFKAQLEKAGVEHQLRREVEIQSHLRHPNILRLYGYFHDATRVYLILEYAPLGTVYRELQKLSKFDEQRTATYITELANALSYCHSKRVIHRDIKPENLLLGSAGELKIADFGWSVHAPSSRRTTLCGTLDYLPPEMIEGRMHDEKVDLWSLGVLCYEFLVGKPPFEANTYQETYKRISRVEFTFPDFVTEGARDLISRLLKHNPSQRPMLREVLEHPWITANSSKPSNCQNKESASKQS
Description: Inhibition of recombinant GST-AURKA (residues Ser123 to Ser401) (unknown origin) expressed in Sf9 insect cells using tetra(-LRRASLG) peptide as substrate incubated for 90 mins by ATP Kinase Glo assay.

In series [14] the target is T1, Aurora kinase B. As to the kind of experiment: Inhibition of wild-type human partial length AURKB (D25 to A303 residues) expressed in mammalian expression system by Kinomescan method.
Series [15] concerns the target Macrophage colony-stimulating factor 1 receptor (Homo sapiens, UniProt P07333). Description: Inhibition of human recombinant GST-CSF1R (residues L534 to C972) expressed in Sf9 insect cells using poly(Glu,Tyr) as substrate incubated for 20 mins by ATP Kinase Glo assay.
Series [16] deals with Serine/threonine-protein kinase PAK 3 (Homo sapiens, UniProt O75914). As to the kind of experiment: Inhibition of wild-type human full length PAK3 (M1 to R544 residues) expressed in bacterial expression system by Kinomescan method.
Sequence of Serine/threonine-protein kinase PAK 3 (O75914 whole entry, the tested form may be a part): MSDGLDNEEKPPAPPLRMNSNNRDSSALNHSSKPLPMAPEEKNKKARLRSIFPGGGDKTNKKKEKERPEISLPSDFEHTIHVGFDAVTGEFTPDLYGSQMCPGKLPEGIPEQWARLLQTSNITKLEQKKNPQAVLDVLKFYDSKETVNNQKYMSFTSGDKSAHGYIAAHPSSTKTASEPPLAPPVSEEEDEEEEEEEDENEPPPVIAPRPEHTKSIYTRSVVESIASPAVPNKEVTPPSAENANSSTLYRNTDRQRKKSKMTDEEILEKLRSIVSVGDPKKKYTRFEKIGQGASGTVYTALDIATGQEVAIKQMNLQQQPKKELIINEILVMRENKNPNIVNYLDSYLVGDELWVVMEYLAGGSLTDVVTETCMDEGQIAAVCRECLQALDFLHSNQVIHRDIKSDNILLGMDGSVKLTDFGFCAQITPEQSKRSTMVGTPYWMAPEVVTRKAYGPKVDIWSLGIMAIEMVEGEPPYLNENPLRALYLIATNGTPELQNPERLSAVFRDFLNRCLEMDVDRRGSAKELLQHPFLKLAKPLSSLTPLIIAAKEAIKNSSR
A further series concerns NFS-60. Description: Antiproliferative activity against mouse NFS-60 cells transfected with human ETV6-CSF1R assessed as reduction in cell viability measured after 72 hrs by MTS method. In kind it is functional, cell-based. The note with it: NFS-60, 72 h. For orientation: Tetrazolium assays rely on reduction of a dye to a coloured formazan, in cell work by metabolically active cells.

The target in series [17] is Epithelial discoidin domain-containing receptor 1 (Homo sapiens, UniProt Q08345). As to the kind of experiment: Inhibition of wild-type human partial length DDR1 (R565 to V876 residues) expressed in bacterial expression system by Kinomescan method.
Sequence of Epithelial discoidin domain-containing receptor 1 (Q08345 whole entry, the tested form may be a part): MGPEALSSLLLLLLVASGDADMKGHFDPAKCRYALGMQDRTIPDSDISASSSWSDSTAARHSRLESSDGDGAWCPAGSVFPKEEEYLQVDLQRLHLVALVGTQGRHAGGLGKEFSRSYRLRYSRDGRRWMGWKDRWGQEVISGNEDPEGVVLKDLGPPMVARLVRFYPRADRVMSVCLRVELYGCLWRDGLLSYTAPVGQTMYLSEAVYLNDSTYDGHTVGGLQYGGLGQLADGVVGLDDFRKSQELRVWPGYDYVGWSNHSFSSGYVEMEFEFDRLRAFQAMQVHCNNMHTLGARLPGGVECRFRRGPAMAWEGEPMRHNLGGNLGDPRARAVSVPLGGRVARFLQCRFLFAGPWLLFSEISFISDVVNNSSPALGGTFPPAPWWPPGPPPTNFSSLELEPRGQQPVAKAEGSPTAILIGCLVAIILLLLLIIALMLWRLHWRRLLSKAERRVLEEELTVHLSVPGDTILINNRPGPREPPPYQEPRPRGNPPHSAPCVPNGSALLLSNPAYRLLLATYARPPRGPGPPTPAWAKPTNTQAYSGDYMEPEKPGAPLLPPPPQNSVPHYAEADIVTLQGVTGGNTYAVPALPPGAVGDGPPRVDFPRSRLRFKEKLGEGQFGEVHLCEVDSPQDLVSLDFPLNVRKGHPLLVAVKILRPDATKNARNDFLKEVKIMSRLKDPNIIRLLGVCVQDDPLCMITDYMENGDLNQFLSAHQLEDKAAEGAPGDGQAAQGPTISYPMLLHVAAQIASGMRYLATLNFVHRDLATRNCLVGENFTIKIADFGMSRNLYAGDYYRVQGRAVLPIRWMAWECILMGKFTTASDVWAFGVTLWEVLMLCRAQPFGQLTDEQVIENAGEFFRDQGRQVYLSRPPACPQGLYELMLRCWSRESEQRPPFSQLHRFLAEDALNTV
Series [18] addresses Platelet-derived growth factor receptor beta (Homo sapiens, UniProt P09619). As to the kind of experiment: Inhibition of wild-type human partial length PDGFRbeta (V582 to Y1009 residues) expressed in bacterial expression system by Kinomescan method.
The subject of the next series is BaF3. As to the kind of experiment: Antiproliferative activity against mouse BaF3 cells transfected with human ETV6-CSF1R assessed as reduction in cell viability measured after 72 hrs by MTS method. The note with it: BaF3, 72 h.
Series [19] concerns the target T3, Receptor-type tyrosine-protein kinase FLT3 (Homo sapiens, UniProt P36888).
T3 sequence (P36888 whole entry): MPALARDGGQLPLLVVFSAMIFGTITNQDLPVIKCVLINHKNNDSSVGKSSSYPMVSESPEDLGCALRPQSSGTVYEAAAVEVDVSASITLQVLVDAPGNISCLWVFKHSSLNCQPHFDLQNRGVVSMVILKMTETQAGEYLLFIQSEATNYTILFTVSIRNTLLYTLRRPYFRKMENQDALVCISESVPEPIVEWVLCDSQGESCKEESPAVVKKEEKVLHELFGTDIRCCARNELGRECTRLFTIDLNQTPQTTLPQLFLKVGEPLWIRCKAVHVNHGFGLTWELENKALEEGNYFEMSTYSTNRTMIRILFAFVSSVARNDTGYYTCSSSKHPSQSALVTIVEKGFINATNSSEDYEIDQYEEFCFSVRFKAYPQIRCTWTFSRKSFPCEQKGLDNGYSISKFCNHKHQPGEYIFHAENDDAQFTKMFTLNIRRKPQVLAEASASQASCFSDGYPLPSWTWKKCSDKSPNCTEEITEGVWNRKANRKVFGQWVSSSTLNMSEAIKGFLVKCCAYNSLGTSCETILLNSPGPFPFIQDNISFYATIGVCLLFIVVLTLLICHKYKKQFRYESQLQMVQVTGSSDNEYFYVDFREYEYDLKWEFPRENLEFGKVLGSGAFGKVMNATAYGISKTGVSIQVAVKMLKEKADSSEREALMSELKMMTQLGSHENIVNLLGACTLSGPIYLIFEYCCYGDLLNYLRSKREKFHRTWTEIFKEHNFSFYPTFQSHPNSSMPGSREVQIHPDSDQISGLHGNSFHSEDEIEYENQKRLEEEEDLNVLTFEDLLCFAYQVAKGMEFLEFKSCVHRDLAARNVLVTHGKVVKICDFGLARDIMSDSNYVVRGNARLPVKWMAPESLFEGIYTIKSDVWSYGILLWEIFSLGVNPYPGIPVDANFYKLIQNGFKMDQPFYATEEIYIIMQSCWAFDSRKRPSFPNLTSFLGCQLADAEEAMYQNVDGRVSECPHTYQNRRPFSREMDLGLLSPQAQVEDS
As to the kind of experiment: Inhibition of wild-type human partial length FLT3 (V592 to Y969 residues) expressed in bacterial expression system by Kinomescan method.

Series [20] deals with BMDM. As to the kind of experiment: Growth inhibition of CSF2-induced mouse BMDM cell assessed as inhibition of M1 like macrophage growth for 3 days by WST-8 assay. The conditions noted are these: 72 h.
In series [21] the target is Mast/stem cell growth factor receptor Kit (Homo sapiens, UniProt P10721). Description: Inhibition of human c-Kit by Kinomescan method.
Sequence of Mast/stem cell growth factor receptor Kit (P10721 whole entry): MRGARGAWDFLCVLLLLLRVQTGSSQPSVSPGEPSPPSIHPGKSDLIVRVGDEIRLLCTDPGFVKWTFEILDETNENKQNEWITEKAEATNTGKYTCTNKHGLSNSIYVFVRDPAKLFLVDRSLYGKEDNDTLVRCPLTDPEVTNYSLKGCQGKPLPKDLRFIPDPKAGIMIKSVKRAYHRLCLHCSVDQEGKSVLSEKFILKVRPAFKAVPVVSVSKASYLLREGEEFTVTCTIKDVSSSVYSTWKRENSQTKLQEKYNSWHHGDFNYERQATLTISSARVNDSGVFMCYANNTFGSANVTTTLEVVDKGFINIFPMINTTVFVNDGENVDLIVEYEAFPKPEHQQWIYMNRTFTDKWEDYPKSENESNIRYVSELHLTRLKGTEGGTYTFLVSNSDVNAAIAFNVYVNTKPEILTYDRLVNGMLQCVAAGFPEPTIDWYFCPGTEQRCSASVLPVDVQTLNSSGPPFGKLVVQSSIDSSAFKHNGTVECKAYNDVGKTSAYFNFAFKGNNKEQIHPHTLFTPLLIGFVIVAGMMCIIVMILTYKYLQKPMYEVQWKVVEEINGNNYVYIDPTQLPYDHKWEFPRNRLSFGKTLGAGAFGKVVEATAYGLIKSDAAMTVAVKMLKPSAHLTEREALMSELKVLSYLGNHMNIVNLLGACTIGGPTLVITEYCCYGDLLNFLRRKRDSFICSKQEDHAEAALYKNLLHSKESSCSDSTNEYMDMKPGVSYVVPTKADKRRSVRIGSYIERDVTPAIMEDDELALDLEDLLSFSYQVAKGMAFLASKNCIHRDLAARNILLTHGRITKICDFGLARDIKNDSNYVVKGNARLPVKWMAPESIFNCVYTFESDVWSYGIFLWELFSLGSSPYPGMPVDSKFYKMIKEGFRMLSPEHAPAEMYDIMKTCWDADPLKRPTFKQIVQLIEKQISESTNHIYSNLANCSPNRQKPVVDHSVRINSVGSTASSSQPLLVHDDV
The test system of series [22] is BMDM. Description: Growth inhibition of CSF1-induced mouse BMDM cell assessed as inhibition of M2 like macrophage growth incubated for 3 days by WST-8 assay. The conditions noted are these: 72 h.

T1 sequence (Q96GD4 whole entry): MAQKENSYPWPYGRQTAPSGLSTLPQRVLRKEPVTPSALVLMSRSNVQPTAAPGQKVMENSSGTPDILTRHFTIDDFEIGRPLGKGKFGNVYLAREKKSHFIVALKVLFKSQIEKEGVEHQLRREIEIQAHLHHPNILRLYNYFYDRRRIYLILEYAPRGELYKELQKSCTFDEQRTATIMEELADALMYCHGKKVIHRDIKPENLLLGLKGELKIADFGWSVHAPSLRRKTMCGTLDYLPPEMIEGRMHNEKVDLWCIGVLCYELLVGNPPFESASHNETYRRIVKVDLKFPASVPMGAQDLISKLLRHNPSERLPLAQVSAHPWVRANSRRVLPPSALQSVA
Sequence of Macrophage colony-stimulating factor 1 receptor (P07333 whole entry, the tested form may be a part): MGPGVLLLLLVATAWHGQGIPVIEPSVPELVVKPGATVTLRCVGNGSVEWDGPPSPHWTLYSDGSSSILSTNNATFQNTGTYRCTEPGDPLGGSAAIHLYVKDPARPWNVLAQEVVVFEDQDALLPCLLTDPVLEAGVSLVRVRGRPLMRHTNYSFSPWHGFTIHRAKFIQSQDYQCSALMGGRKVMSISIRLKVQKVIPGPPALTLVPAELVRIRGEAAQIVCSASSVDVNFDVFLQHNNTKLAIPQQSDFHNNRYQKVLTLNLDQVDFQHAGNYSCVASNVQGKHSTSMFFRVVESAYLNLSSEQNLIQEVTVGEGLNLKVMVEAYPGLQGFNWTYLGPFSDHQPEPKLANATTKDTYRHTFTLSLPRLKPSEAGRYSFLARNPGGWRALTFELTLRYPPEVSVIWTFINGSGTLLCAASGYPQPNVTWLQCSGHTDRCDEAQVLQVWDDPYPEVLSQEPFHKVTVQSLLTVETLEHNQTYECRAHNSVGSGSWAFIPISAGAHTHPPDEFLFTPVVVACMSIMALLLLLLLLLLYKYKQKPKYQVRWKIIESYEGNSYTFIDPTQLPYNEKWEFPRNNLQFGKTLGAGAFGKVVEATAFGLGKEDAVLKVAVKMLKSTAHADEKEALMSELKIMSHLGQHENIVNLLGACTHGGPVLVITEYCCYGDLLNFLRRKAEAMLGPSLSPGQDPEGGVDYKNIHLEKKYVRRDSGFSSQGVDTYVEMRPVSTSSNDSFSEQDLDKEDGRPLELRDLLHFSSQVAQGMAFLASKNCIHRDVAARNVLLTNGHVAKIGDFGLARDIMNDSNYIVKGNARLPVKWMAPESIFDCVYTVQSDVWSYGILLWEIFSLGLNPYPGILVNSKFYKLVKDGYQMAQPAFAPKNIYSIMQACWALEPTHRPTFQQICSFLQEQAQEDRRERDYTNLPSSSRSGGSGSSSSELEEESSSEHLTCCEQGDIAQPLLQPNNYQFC

One may read the half-life as how long it takes for the measured level to halve. Lower therefore signals fast loss. The clearance is the volume of plasma or blood freed of the substance per unit of time. Higher therefore signals efficient removal. The bioavailability is the share of a dose that reaches the circulation, judged against a reference dose that is usually intravenous. A high value points to much systemic uptake. One may read the Tmax as the time at which the peak concentration occurs. Take `CN(C)c1ccc2c(Oc3ccc(NC(=O)NCc4ccc(C(F)(F)F)nc4)cc3)ncnc2c1.CS(=O)(=O)O`: the half-life in series [1] was 144 min; in [2], 696 min. In [3], this compound came in with a Cmax/dose of 68 ng/mL. For the same compound, the inhibition in vivo at 100 mg/kg in the series on MC-38 was found to be 59%. Besides, the Activity result in series [4] is “Non-Toxic”. Besides, the clearance in series [5] amounted to 8.9 mL/min/kg. This compound also yielded a bioavailability in [6] of 34.9%. Moreover, the “fold change (FC)” value came to 2.5 in the series with Mus musculus [7] and 3 with Mus musculus [10]. Besides, the Tmax in series [8] came to 0.5 h. Also, in series [9], the Vd amounted to 1 L/kg.

In general, IC50 refers to the concentration that gives 50% inhibition. By EC50 is commonly meant the concentration needed to bring the measured effect to its halfway point. Regarding `CN(C)c1ccc2c(Oc3ccc(NC(=O)NCc4ccc(C(F)(F)F)nc4)cc3)ncnc2c1`, the half-life in series [1] is 174 min; in series [2] it was 522 min. Also, the IC50 in series [11] was more than 9 µM; in series [12] it was 52.7 nM; at Aurora kinase B [13], 1400 nM; at Aurora kinase A it was more than 10 µM; at Aurora kinase B [14] it was 226 nM; in series [15], 14.4 nM. Moreover, the IC50 in series [16] was more than 9 µM; in series [17] it was 59.7 nM; in series [18], 31.5 nM; in [19], 64.3 nM; in the series with BMDM [20] it was 5.39 µM; in [21], 1.1 nM. In the series with BMDM [22], the IC50 turned out to be 31 nM. Further, the Cmax/dose in series [3] was determined as 24 ng/mL. This compound also came in with a clearance in series [5] of 4.5 mL/min/kg. The compound also displayed a bioavailability in series [6] of 10%. Also, the 50% effective concentration (EC50) with NFS-60 came out at 95 nM; in the series with BaF3 it was 80 nM. The Tmax in [8] turned out to be 5.5 h. In series [9], the Vd was determined as 0.6 L/kg.
